This is an account of results in patent publication US20070161644A1, “Erastin analogs and uses thereof” (priority 2005, published 2007).

One assay deals with BT-549. The assay can be described thus: Sytox screen, tumor cell line panel. The format is cell-based. Particulars: Homo sapiens, Breast, activated pathway, read-out: IC 50, BT-549.
A further assay concerns HOP-92. The assay can be described thus: Sytox screen, tumor cell line panel. It counts as cell-based. The note with it: Homo sapiens, Non-Small Cell Lung, Wt ras, read-out: IC 50, HOP-92.
The subject of another assay is HT1080. The assay can be described thus: Sytox screen, tumor cell line panel. The note with it: Homo sapiens, HT-1080; fibrosarcoma; n-ras mutation; read-out: IC 50, HT1080. The format is cell-based.
In a further assay the test system is MALME-3M. The assay is described as follows: Sytox screen, tumor cell line panel. It counts as cell-based. The note with it: Homo sapiens, Melanoma, B-raf V600E mut, ras wt, read-out: IC 50, MALME-3M.
For a further assay, the system named is MIA-PaCa-2. The assay can be described thus: Sytox screen, tumor cell line panel. It counts as cell-based. The note with it: Homo sapiens, Pancreatic, K-ras mutant (G12C), read-out: IC 50, MIA-PaCa-2.
In the next assay the test system is PANC-1 xenografts. The assay can be described thus: PANC-1 tumor treatment study. The format is in vivo. Particulars: immunodeficient nude mouse; once a day for five consecutive days. On the procedure:
The experimental plan for the PANC-1 study was essentially identical to that of the HT-1080 study outlined above in Example 10 with the following exceptions: approximately 30-40 mg fragment of passaged PANC-1 tumor tissue was implanted subcutaneously in the right flank of an immunodeficient nude mouse. Tumor growth was monitored daily and when the tumors reached approximately 100 mm^3, animals harboring similarly sized tumors were group matched and compound dosing was initiated. Administration of compound 5 occurred once a day for five consecutive days at the doses listed below. In the PANC-1 xenografts, gemcitabine, administered at the maximum tolerated dose for the model, was used as a control. The gemcitabine regimen was 180 mg/kg […] on every third day over a period of 9 days.

The subject of the next assay is SK-MEL-5. The assay can be described thus: Sytox screen, tumor cell line panel. Particulars: Homo sapiens, Melanoma, B-raf V600E mut heterozygote, read-out: IC 50, SK-MEL-5. The format is cell-based.
In the next assay the test system is SK-MEL-28. The assay is described as follows: Sytox screen, tumor cell line panel. It counts as cell-based. The note with it: Homo sapiens, Melanoma, B-raf V600E mut, ras wt, read-out: IC 50, SK-MEL-28.
A further assay concerns SK-OV-3. The assay can be described thus: Sytox screen, tumor cell line panel. The format is cell-based. The note with it: Homo sapiens, Ovarian, read-out: IC 50, SK-OV-3.
The subject of a further assay is MCF7. The assay can be described thus: Sytox screen, tumor cell line panel. The format is cell-based. Particulars: Homo sapiens, Breast, activated pathway, read-out: IC 50, MCF7.
For the next assay, the system named is BJELR. The assay is described as follows: Sytox primary screen. It counts as cell-based. Particulars: Homo sapiens. The text has this: The Sytox primary screen is a phenotypic assay which monitors alterations in cell survival-proliferation as a result of compound treatment. It was devised as high throughput method to identify compounds which specifically alter the growth potential of cells harboring the causative mutations found in cancer patients while not affecting the growth of normal cells.
The assay relies upon an inexpensive, simple and reliable readout of a membrane impermeable fluorescent dye (Sytox, from Molecular Probes) which binds to nucleic acid. In healthy cells, no signal is detected because the cell's membrane is intact and the dye will not enter. However, if a cell's membrane is compromised as a result of apoptosis or necrosis, a fluorescent signal proportional to the number of similarly affected cells will be detected. By utilizing a two-step readout (final read in the presence of detergent to permit labeling of all cells), the assay can identify compounds which produce cytostasis, cytotoxicity and/or mitogenesis. The first read or “dead cell” read provides an estimate of the toxicity of a given compound by indicating the number of dead or dying cells in the culture at the time of assay. The second read or “total cell” read captures both the cumulative effects of cytoxicity in reducing the size of the cell population as well as any cytostatic or anti-proliferative effects a test compound may exert on the cells in the test population in the absence of toxicity.
For the purpose of screening, the previously described BJ-TERT line was defined as the “normal” reference cell line and BJ-TERT/LT/ST/RAS^V12 cells were the tumorigenic cell line. Cells were seeded overnight in 96 well plates at densities which without treatment would permit 95% confluence in the wells 72 H later. The following day, the cells were exposed to test compounds in a dilution series for a period of 48 hours. Following this incubation period, the Sytox reagent was added to the cultures at the manufacturer's recommended concentration and the dead cell fluorescence read was taken. After completion of this measurement, the detergent Saponin was added to each well of the cultures to permeabilize the membranes allowing the Sytox reagent to enter every cell thereby, facilitating measurement of the total number of cells remaining in the culture.

The next assay deals with DU-145. The assay can be described thus: Sytox screen, tumor cell line panel. The format is cell-based. Particulars: Homo sapiens, Prostate, Wt ras, read-out: IC 50, DU-145.
A further assay has as its system HOP-62. The assay can be described thus: Sytox screen, tumor cell line panel. It counts as cell-based. Particulars: Homo sapiens, Non-Small Cell Lung, K-ras G12V, read-out: IC 50, HOP-62.
A further assay concerns PANC-1. The assay is described as follows: Sytox screen, tumor cell line panel. The format is cell-based. The note with it: Homo sapiens, Pancreatic, K-ras V12 mutant, read-out: IC 50, PANC-1.
The next assay has as its system PC-3. The assay can be described thus: Sytox screen, tumor cell line panel. It counts as cell-based. The note with it: Homo sapiens, Prostate, read-out: IC 50, PC-3.
A further assay relates to HT-1080 xenografts. The assay is described as follows: HT-1080 tumor treatment study. The format is in vivo, mouse. Particulars: nude Balb/c mice; 100 or 50 mg/Kg, QD×5 days, IP. On the procedure:
Nude Balb/c (Nu/Nu strain, Charles River Laboratories), female, 5-6 week. old (˜20 g average body weight).
Both compounds were formulated in an identical manner. For the 100 mg/kg dose level, each compound was delivered at a concentration of 10.0 mg/ml, in an injection volume of 0.2 ml. For the 50 mg/kg dose level, each compound was delivered at a concentration of 5.0 mg/ml, in an injection volume of 0.2 ml. For both dose levels, the vehicle contained 0.025% Tween-80, 0.01% benzyl alcohol, 35 mM acetic acid (HOAc), 100 mM potassium phosphate buffer, and 32 mM sucrose, pH=6.5.
Beginning when the mean tumor volume reached ˜200 mm^3, and continuing through day 5, every day, each animal was administered a single IP injection of one of the above treatments, for a total of 5 doses.
Each of 70 mice was implanted with 1×10^7 HT-1080 cells by SC injection of 0.1 cc of inoculum into the right hind flank. A 25 G×⅝″ needle size was used. […]
Starting on Day 1, all animals were weighed, and tumor dimensions (length (L) and width (W)) were measured, every other day. […]
The resulting tumor volume values were averaged for each study group for each time point, and were then plotted against time. Variance was expressed as standard error of the mean (±SEM).

A further assay deals with OVCAR-5. The assay is described as follows: Sytox screen, tumor cell line panel. It counts as cell-based. The note with it: Homo sapiens, Ovarian, K-ras G12V, read-out: IC 50, OVCAR-5.
In another assay the test system is HCT116. The assay can be described thus: Sytox screen, tumor cell line panel. The format is cell-based. Particulars: Homo sapiens, HCT-116; Colon; K-ras G12D; read-out: IC 50, HCT116.
For a further assay, the system named is DLD-1. The assay can be described thus: Sytox screen, tumor cell line panel. It counts as cell-based. Particulars: Homo sapiens, Colon, K-ras G13D mutation, wt B-raf, read-out: IC 50, DLD-1.
The test system of another assay is OVCAR-3. The assay is described as follows: Sytox screen, tumor cell line panel. It counts as cell-based. The note with it: Homo sapiens, Ovarian, K-ras amplification, read-out: IC 50, OVCAR-3.

Like-named read-outs stand apart in the source and are kept apart here.

On to `CCOc1ccccc1-n1c(CN2CCNCC2)nc2ccccc2c1=O` [Compound 5, 3-(2-ethoxyphenyl)-2-(piperazin-1-ylmethyl)quinazolin-4(3H)-one], for which the IC50 was at least 100 nM in the assay with BT-549; at least 1000 nM in the assay with HOP-92; below 100 nM in the assay with HT1080; at least 100 nM in the assay on MALME-3M; at least 1000 nM with MIA-PaCa-2; at least 100 nM in the assay with SK-MEL-5. Besides, the IC50 in the assay on SK-MEL-28 was at least 100 nM; in the assay with SK-OV-3 it was at least 100 nM; in the assay with MCF7, at least 1000 nM; in the assay with BJELR (Sytox screen, 48 hours, read-out: IC50 in BJELR), below 100 nM; in the assay on BJELR (fibroblast, primary, ras V12 mutation, read-out: IC 50, BJELR), below 100 nM; in the assay with DU-145, at least 100 nM. The IC50 with HOP-62 is at least 100 nM; with PANC-1, below 100 nM; in the assay on PC-3, at least 1000 nM; in the assay on OVCAR-5, below 100 nM; in the assay with HCT116, at least 100 nM; with DLD-1, at least 100 nM. Also, in the assay on OVCAR-3, the IC50 was at least 100 nM. Further, the “antitumor activity in PANC-1 xenografts” value in the assay on PANC-1 xenografts is “tumor regression”. The “antitumor activity in HT-1080 xenografts” value with HT-1080 xenografts was “robust tumor regression”.
